The values that follow come from patent US11524000B2, “Targeting Mcl-1 to enhance DNA replication stress sensitivity for cancer therapy” (Emory University, priority 2017, dated 2022).

The structures appear in SMILES notation.

Broadly, the Kd is the equilibrium constant for the complex coming apart.

In one data set the target is T1, Mcl-1/Ku complex (Homo sapiens, UniProt Q07820).
T1 construct: endogenous in cells; host or cells: H1299
Kind of data set: Co-IP of Mcl-1/Ku interaction in H1299 cells. The data set is classed as cell-based. The following applies: for Mcl-1/Ku interaction: time course 0, 0.5, 1, 2, 8, or 24 hours. As for the experimental part:
(§1) To test whether replication stress affects the Mcl-1/Ku interaction, time course experiments were carried out. H1299 cells were treated with Hu or olaparib for various times (0, 0.5, 1, 2, 8, or 24 hours). The Mcl-1/Ku interaction and cell cycle were analyzed simultaneously at each time point. […] These findings indicate that, in addition to S/G2 cell cycle phase, Hu- or olaparib-induced DNA replication stress can also promote Mcl-1/Ku interaction.
(§2) To assess whether Mcl-1 is essential for the effect of MI-223 on HR activity, Mcl-1 was knocked out from H1299 cells using CRISPR/Cas9 to generate Mcl-1-deficient cells. WT Mcl-1, Ku binding-deficient mutant ΔBH1, and empty vector control were exogenously expressed in Mcl-1-knockout H1299 (Mcl1−/− H1299) cells, followed by treatment with MI-223 for 24 hours and analysis of HR efficacy. […] Intriguingly, expression of exogenous WT Mcl-1 but not the Ku binding-deficient ΔBH1 Mcl-1 mutant in Mcl-1-deficient H1299 cells restored the inhibitory effect of MI-223 on HR activity.

The subject of data set [1] is Rad51 foci in H1299 cells. Kind of data set: Rad51 foci immunostaining in H1299 cells. The class given is cell-based. The note with it: for induction of Rad51 foci: single agent. As for the experimental part:
Rad51 foci were quantified by counting of at least 100 cells from each sample.
(§3) To test whether inhibition of HR by MI-223 sensitizes cancer cells to DNA replication stress, H1299 cells were treated with olaparib or Hu in the absence or presence of MI-223, followed by analysis of Rad51 foci and clonogenic survival. […] Importantly, MI-223 suppression of HR DNA repair activity synergizes with olaparib or Hu to kill H1299 lung cancer cells (FIG. 4H).

Data set [2] relates to H1299 cells. Kind of data set: Cell cycle analysis of H1299 cells during replication stress time course. The class given is cell-based. As for the experimental part:
as §1

In data set [3] the test system is RPA2 foci in WT MEF cells. The data set is described as follows: RPA2 foci immunostaining in WT MEF cells (DNA end resection). The data set is classed as cell-based. As for the experimental part:
(§4) HR repair is initiated by DSB end resection that is mediated by the Mre11 complex, whereas Ku tightly bound to DNA ends blocks Mre11 DNA resection. As Mcl-1 negatively regulates Ku function via direct binding, Mcl-1 may reverse the Ku-mediated inhibitory effect on Mre11 complex-mediated DNA end resection. Mre11-Rad50 complex-mediated exonuclease activity was analyzed in the presence of increasing concentrations of Mcl-1 protein using 5′-32P-end-labeled fork DNA as a substrate. […] Ku heterodimer inhibited MR-mediated DNA resection (FIG. 2A, lane 3 vs. lane 2), which was gradually reversed by the addition of increasing concentrations of purified Mcl-1 protein in the presence of a constant amount of Ku protein (FIG. 2A, lane 3 vs. lanes 4-7). BSA was used as control and had no effect on DNA resection. […] In addition, RPA2 is an established reporter of DNA end resection during HR repair in cells. To further test the effect of Mcl-1 on DNA resection in cells, RPA2 foci formation following treatment with Hu, camptothecin (CPT), or IR was compared in WT and Mcl1−/− MEFs. […] RPA2 phosphorylation at Ser4 and Ser8 was analyzed by Western blot using the S4/S8 dual-site phosphospecific RPA2 antibody following exposure of MEF WT or MEF Mcl1−/− cells to IR, CPT, and Hu. […]

Data set [4] relates to RPA2 phosphorylation at Ser4 and Ser8. The data set is described as follows: RPA2 Ser4/Ser8 phosphorylation by Western blot in MEF cells. The class given is cell-based. As for the experimental part: as §4
A general note: In western blotting, separated proteins are transferred to a membrane and probed.

For data set [5], the system named is H1299 lung cancer xenografts. Kind of data set: H1299 lung cancer xenograft tumor growth in nude mice. The class given is in vivo. The note with it: for repression of lung cancer in vivo (tumor volume): single agent, 0, 20, 40, 80 and 120 mg/kg/day for 30 days; for suppression of lung tumor growth: vs single agent. As for the experimental part:
Nu/Nu nude mice with H1299 lung cancer xenografts were treated with increasing doses of MI-223 (0, 20, 40, 80 and 120 mg/kg/day) for 30 days (n=8 mice per group). Tumor volume was measured once every 2 days. After 30 days, the mice were sacrificed, and the tumors were removed and analyzed. […]

A further data set has as its target WT Mcl-1 protein (Homo sapiens, UniProt Q07820). Kind of data set: Isothermal titration calorimetry (ITC), MI-223/Mcl-1 binding. The note with it: 1-site binding mode, read-out: binding constant (KD). As for the experimental part: (§5) The binding constant (KD) value was determined by fitting of the titration curve to a 1-site binding mode
(§6) To confirm the binding of MI-223 with Mcl-1, isothermal titration calorimetry (ITC) was used to measure MI-223/Mcl-1 binding. ITC is a direct, label- and immobilization-free technique that measures the binding affinity between proteins and small-molecule ligands that interact with each other, and can analyze binding constant (KD) values in the millimolar and nanomolar range. ITC experiments were performed to assess MI-223/Mcl-1 binding using an auto-iTC200 instrument. […] In addition to the binding constant (KD) value measured by ITC, we also used fluorescence polarization (FP) to measure the inhibitory constant (KI) value using a fluorescence-labeled PUMA BH3 peptide. The PUMA BH3 peptide was chose for this FP assay to evaluate Mcl-1/MI-223 binding because it has been reported to bind specifically to the […] of Mcl-1. […] Based on findings from both ITC (i.e., KD) and FP (i.e., KI), we conclude that MI-223 may directly bind to Mcl-1 with good affinity.
In general terms: ITC needs no label: the signal is the heat of the interaction.

Data set [6] has as its target T2, BH1 deletion Mcl-1 mutant protein (ΔBH1) (Homo sapiens, UniProt Q07820, DEL256-265).
T2 construct: made in house
Kind of data set: Isothermal titration calorimetry (ITC), BH1 deletion mutant. The following applies: ITC assay. The class given is binding. As for the experimental part: as §5, §6

The next data set has as its target Mcl-1 (Homo sapiens, UniProt Q07820). Kind of data set: Fluorescence polarization (FP) assay with fluorescence-labeled PUMA BH3 peptide. The note with it: read-out: inhibitory constant (KI) of MI-223/Mcl-1 binding. As for the experimental part:
as §6
For orientation: In fluorescence polarisation assays a small probe gives low polarisation when free and higher when bound to something large.

Data set [7] deals with HR activity in H1299 DR-GFP cells. The data set is described as follows: HR repair efficiency in H1299 DR-GFP cells. The data set is classed as cell-based.
The subject of data set [8] is HR activity in U2OS DR-GFP cells. Kind of data set: HR repair efficiency in U2OS DR-GFP cells. The data set is classed as cell-based. The note with it: dose-dependent.
The subject of data set [9] is HR efficacy in Mcl-1-deficient H1299 cells. The data set is described as follows: HR efficacy in Mcl-1-knockout H1299 cells. The class given is cell-based. The note with it: 24 hours. As for the experimental part: as §2
The next data set relates to H1299 lung cancer cells. Kind of data set: Colony formation assay (clonogenic survival) in H1299 cells. The class given is cell-based. As for the experimental part:
as §3

In data set [10] the test system is H1299 cells. The data set is described as follows: Annexin V binding assay. The data set is classed as cell-based.
Data set [11] relates to H1299 lung cancer xenografts. The data set is described as follows: IHC staining of Ki-67 and γ-H2AX in xenograft tumor tissues. The class given is in vivo, mice.
A short description of data set [12]: Toxicity evaluation in treated xenograft mice (weight, blood chemistry, blood counts, histopathology). The class given is in vivo.
Where [13] appears, read: MI-223 in combination with Hu, compared with Hu alone.
Setting [14] is: MI-223 in combination with olaparib, compared with olaparib alone.
Setting [15] is: mice treated with MI-223 alone or in combination with olaparib or Hu.

T1 sequence (Q07820 whole entry, one chain of several): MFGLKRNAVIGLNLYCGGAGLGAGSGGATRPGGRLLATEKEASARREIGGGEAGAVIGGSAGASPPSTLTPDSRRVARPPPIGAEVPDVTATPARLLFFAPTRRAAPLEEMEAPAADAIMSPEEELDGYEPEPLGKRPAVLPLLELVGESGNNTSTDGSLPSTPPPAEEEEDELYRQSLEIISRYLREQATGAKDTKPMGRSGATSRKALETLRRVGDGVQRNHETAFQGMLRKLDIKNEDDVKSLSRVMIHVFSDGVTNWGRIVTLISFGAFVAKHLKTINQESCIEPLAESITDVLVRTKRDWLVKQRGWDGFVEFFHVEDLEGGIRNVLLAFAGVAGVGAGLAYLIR
T2 sequence (Q07820 with tags, fused parts or gaps DEL256-265): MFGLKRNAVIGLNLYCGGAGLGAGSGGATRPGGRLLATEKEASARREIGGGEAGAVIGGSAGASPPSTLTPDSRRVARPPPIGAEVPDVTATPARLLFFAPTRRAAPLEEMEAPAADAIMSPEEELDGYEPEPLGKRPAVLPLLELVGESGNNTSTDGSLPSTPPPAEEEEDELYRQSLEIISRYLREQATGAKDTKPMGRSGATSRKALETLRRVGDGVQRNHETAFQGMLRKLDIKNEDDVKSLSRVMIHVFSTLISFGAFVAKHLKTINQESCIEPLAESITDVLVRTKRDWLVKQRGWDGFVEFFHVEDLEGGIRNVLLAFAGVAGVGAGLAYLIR
Sequence of Mcl-1 (Q07820 whole entry): as the sequence (Q07820 whole entry, one chain of several) above
Sequence of WT Mcl-1 protein (Q07820 whole entry): as the sequence (Q07820 whole entry, one chain of several) above

On to `NC(=O)NO` [Hu, hydroxyurea], for which the Mcl-1/Ku interaction entry at Mcl-1/Ku complex was “increased at 2, 8, and 24 hours”. The “induction of Rad51 foci” value in data set [1] is “induced Rad51 foci”. The “percentage of cells in S phase” value with H1299 cells [2] (24-hour time point) is given as “enhanced”; in the data set on H1299 cells [2] (short time points (2 and 8 hours)), “did not alter”. In addition, the RPA2 foci formation entry in data set [3] (Hu 0.2 mM for 24 hours) is listed as “induced RPA2 foci formation”. The “RPA2 phosphorylation at S4 and S8” value in [4] (Hu 0.2 mM for 24 hours) is “stimulated RPA2 phosphorylation”.
Take `Cc1ccc(C)c(NC(=O)C(=O)C(C(=O)c2ccc3ccccc3c2)C2OC(=O)c3ccccc32)c1` (stereo not shown) [MI-985, N-(2,5-dimethylphenyl)-4-(naphthalen-2-yl)-2,4-dioxo-3-(3-oxo-1,3-dihydroisobenzofuran-1-yl)butanamide]: the “repression of lung cancer in vivo (tumor volume)” value (from here on “repression of lung cancer in vivo”) in data set [5] is recorded as “potently represses lung cancer in vivo”.
Take `O=[N+]([O-])c1ccccc1C=NNC(=S)NN=Cc1ccccc1[N+](=O)[O-]` [MI-361, N′-(2-nitrobenzylidene)-2-(2-nitrobenzylidene)hydrazine-1-carbothiohydrazide]: in [5], the “repression of lung cancer in vivo” value is given as “potently represses lung cancer in vivo”.
In the case of `O=C(c1cc(Cc2n[nH]c(=O)c3ccccc23)ccc1F)N1CCN(C(=O)C2CC2)CC1` [olaparib], the Mcl-1/Ku interaction entry on Mcl-1/Ku complex is “increased at 2, 8, and 24 hours”. Also, in data set [1], the “induction of Rad51 foci” value is listed as “induced Rad51 foci”. Moreover, the “percentage of S phase cells” value in the data set with H1299 cells [2] (time points tested) was “did not significantly affect”.
Take `CC[C@@]1(O)C(=O)OCc2c1cc1n(c2=O)Cc2cc3ccccc3nc2-1` [CPT, camptothecin]: the RPA2 foci formation result in [3] (CPT 1 μM for 1 hour) is listed as “induced RPA2 foci formation”. Moreover, the “RPA2 phosphorylation at S4 and S8” value in data set [4] (CPT 1 μM for 1 hour) is listed as “stimulated RPA2 phosphorylation”.
`CCOC1=CC=CC(=CNn2c(-c3ccccc3Cl)nc3ccccc3c2=O)C1=O` [MI-223, 2-(2-chlorophenyl)-3-(((5-ethoxy-6-oxocyclohexa-2,4-dien-1-ylidene)methyl)amino)quinazolin-4(3H)-one]: the Kd at WT Mcl-1 protein came to 161 ± 7 nM. Also, the “binding to ΔBH1 Mcl-1 mutant protein” value in data set [6] is recorded as “failed to bind”. On Mcl-1, the Ki was 193 ± 4.3 nM. The “disruption of Mcl-1/Ku complex” value on Mcl-1/Ku complex (increasing concentrations, 24 hours, co-IP with Mcl-1 antibody) was “disrupted the Mcl-1/Ku complex”. Besides, the HR activity result in data set [7] (H1299 DR-GFP cells, dose-dependent) is “potently inhibited HR activity”; in [8], “potently inhibited HR activity”. Besides, the HR efficacy entry is listed as “dose-dependent reduction of HR efficacy” in data set [7] (H1299 parental cells, 24 hours) and “no significant further effect” in [9]. For the same compound, the “inhibition of Rad51 foci formation” value in [1] (olaparib- or Hu-induced foci, MI-223 4 μM, 24 hours) is “strongly inhibited Rad51 foci formation”. For the same compound, the “synergy in cell killing (colony formation)” value with H1299 lung cancer cells (MI-223 in combination with Hu) and in the data set with H1299 lung cancer cells (MI-223 in combination with olaparib) was “synergizes” throughout. The apoptotic cell death entry in the data set on H1299 cells [10] is recorded as “did not induce significant apoptotic cell death”. For the same compound, the “suppression of lung tumor growth” value in [5] (MI-223 40 mg/kg/d in combination with Hu 500 mg/kg) is reported as “significantly greater efficacy than a single agent alone”; in data set [5] (MI-223 40 mg/kg/d in combination with olaparib 40 mg/kg/d, 3 weeks), “significantly greater efficacy than a single agent alone”. Besides, the “repression of lung cancer in vivo” value in data set [5] is listed as “potently represses lung cancer in vivo”. Besides, the “Ki-67 in tumor tissues” value in [11] (setting [13]) and in data set [11] (setting [14]) was “significant reduction of Ki-67” in each case. The “γ-H2AX in tumor tissues” value in data set [11] (setting [13]) and in [11] (setting [14]) was “increased levels of γ-H2AX” throughout. In addition, the “histopathologic evaluation of normal tissues” value in [12] (brain, heart, lung, liver, spleen, kidney, and intestine) is “no evidence of normal tissue toxicity”. Also, in data set [12] (setting [15]), the “increase in alanine transaminase, aspartate transaminase, or blood urea nitrogen” value is “no significant”. Further, the “reduction in wbcs, rbcs, hemoglobin, or platelets” value in [12] (setting [15]) was “no significant”. Besides, the weight loss entry in data set [12] (setting [15]) is given as “no significant weight loss”.
With `O=C1C=CC=CC1=CNNc1nnc(NNC=C2C=CC=CC2=O)c2ccccc12` [MI-647, 6,6′-((phthalazine-1,4-diylbis(hydrazine-2,1-diyl))bis(methanylylidene))bis(cyclohexa-2,4-dien-1-one)], the “repression of lung cancer in vivo” value in data set [5] was “potently represses lung cancer in vivo”.
